Experimental data from patent US20030077826A1, “Chimeric molecules containing a module able to target specific cells and a module regulating the apoptogenic function of the permeability transition pore complex (PTPC)” (priority 2001, published 2003).
Ends that are not written are not given here. Peptide text beside a SMILES is read from it. * marks the point of attachment. Biotin = O=C1N[C@H]2[C@H](CS[C@H]2CCCCC(=O)*)N1

Experiments:
[1] = system: permeability transition pore (PTP); experiment: Swelling of isolated mitochondria (large amplitude swelling, 90° light scattering); type: biochemical, rat; set-up: key to Induction of Mitochondrial swelling (sw): +++ rapid sw; ++ low sw; + very low sw; − no sw t 20 min; conditions: for Induction of Mitochondrial swelling (sw): 5 μM, 20 min, isolated mitochondria
Procedure: Mitochondria are purified from rat liver, as described (Costantini et al., 1996), and resuspended in 250 mM sucrose+0.1 mM EGTA+10 mM-tris[hydroxymethyl]methyl-2-Aminoethanesulfonic acid, pH=7.4). For the induction of PT, mitochondria (0.5 mg protein per ml) are resuspended in PT buffer (200 mM sucrose, 10 mM Tris-MOPS (pH 7.4), 5 mM Tris-succinate, 1 mM Tris-phosphate, 2 μM rotenone, and 10 μM EGTA-Tris), and monitored in an F4500 fluorescence spectrometer (Hitachi, Tokyo, Japan) for the 90° light scattering of light ([…]), 1 μM cyclosporin A (CsA; Novartis, Basel, Switzerland), 5 μM CaCl2, and/or 0.5 to 20 μM of pTarg-pTox or pTarg-pSave. For the determination of the ΔΨm, mitochondria (0.5 mg protein per ml) are incubated in a buffer supplemented with 1 μM rhodamine 123 (Molecular Probes, Eugene, Oreg.) and the dequenching of rhodamine fluorescence (excitation 505 nm, emission 525 nm) is measured as described (Shimizu et al, 1998). Supernatants from mitochondria (6800 g for 15 min; then 20 000 g for 1 h; 4° C.) are frozen at −80° C. until determination of apoptogenic activity on isolated nuclei, DEVD-afc cleaving activity, and immunodetection of cytochrome c and AIF. Cytochrome c and AIF are detected by means of a monoclonal antibody (clone 7H8.2C12, Pharmingen) and a polyclonal rabbit anti-serum (Susin et al. 1999) respectively.

Purified VDAC = experiment: Surface plasmon resonance, immobilised peptides with purified VDAC; type: binding; conditions: for specific binding of VDAC: 50 nM VDAC
Procedure: (§1) Sensor Chips SA (streptavidin coated sensor chips) were used for immobilisation of the different peptides. Tox1 was immobilised at a density of 0.7 ng/mm^2, Tox0 at a density of 3.7 ng/mm^2,. Ctr1Tox0 at a density of 1.4 ng/mm^2, Tox5 at a density of 1 ng/mm^2, Tox6 at a density of 1 ng/mm2, Save1 at a density of 1.3 ng/mm^2, and the control peptide at a density of 0.8 ng/mm^2. Association and dissociation kinetics of ANT and VDAC interactions were followed at a rate of 10 μL/min for 10 minutes (5 minutes association and 5 minutes dissociation). The ligand was regenerated with a 1 minute flux of KSCN 3M. The obtained sensorgrams were analysed by the BlAeval 3.1 software using the method of double references (Myszka D. G. 2000. Kinetic, equilibrium and thermodynamic analysis of macromolecular interactions with BIACORE. Methods Enzymol. 323:325-340). From the sensorgrams with the ligands were first substracted the sensorgrams obtained with the corresponding analyte solvents. A second substraction was performed with the sensorgrams obtained with the control peptide ligand. The control peptide for the Tox and Save peptides was biot-H19C corresponding to the sequence of the β2-adrenergic receptor (Lebesgue D., Wallukat G., Mijares A., Granier C., Argibay J., and Hoebeke J. (1998) An agonist-like monoclonal antibody to the human β 2-adrenergic receptor. Eur.J. Pharmacol. 348:123-133). The control peptide for Tox0 was Ctr1Tox0.

Purified ANT = target: T1, Purified ANT (Rattus norvegicus, UniProt Q05962); experiment: biochemical; type: binding
T1 sequence (Q05962 1-298): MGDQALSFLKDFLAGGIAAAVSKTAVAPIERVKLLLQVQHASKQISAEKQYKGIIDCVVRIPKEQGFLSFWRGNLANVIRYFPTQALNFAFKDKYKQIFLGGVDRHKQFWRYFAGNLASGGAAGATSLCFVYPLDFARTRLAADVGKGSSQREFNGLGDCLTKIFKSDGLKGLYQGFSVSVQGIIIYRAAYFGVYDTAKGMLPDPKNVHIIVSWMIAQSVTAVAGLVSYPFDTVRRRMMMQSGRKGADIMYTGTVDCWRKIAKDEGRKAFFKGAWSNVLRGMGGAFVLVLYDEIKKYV
Procedure: as §1

[2] = target: T2, adenine nucleotide translocator (ANT), purified from rat heart mitochondria (rat), Q05962; experiment: SPR (BIAcore), peptide on streptavidin chip, ANT as analyte at one concentration (50 nM)
T2 chain: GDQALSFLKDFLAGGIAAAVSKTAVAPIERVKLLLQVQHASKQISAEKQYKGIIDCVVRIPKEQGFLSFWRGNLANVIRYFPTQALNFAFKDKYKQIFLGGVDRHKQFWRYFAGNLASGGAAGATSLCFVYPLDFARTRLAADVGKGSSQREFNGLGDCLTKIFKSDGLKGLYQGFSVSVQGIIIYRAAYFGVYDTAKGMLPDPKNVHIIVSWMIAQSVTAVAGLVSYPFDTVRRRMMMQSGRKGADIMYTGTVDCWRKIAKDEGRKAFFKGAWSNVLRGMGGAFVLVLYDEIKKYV

[3] = target: T2, adenine nucleotide translocator (ANT), …

Molecule: Biot-CNGRC-GG-CNGRC [Ctr2 Tox1]
- Induction of Mitochondrial swelling (sw) [1]: −

Molecule: Biot- CNGRC-GG-HFRIGCRHSRIG [Tox1]
- Induction of Mitochondrial swelling (sw) [1]: ++
- association of VDAC with the peptide ligand (Purified VDAC; VDAC concentrations ten times higher than ANT): only extremely low association
- binding to purified ANT (in words) (Purified ANT; surface plasmon resonance): Binds

Molecule: Biot- CNGRC-GG-HFAIGCRHSAIG [Ctr1 Tox1]
- Induction of Mitochondrial swelling (sw) [1]: −

Molecule: CC[C@H](C)[C@H](NC(=O)CNC(=O)[C@@H](NC(=O)[C@H](CCCNC(=N)N)NC(=O)[C@H](CO)NC(=O)[C@H](Cc1c[nH]cn1)NC(=O)[C@H](CCCNC(=N)N)NC(=O)[C@H](CS)NC(=O)CNC(=O)[C@@H](NC(=O)[C@H](CCCNC(=N)N)NC(=O)[C@H](Cc1ccccc1)NC(=O)[C@H](Cc1c[nH]cn1)NC(=O)[C@@H](NC(=O)[C@H](Cc1ccccc1)NC(=O)[C@H](CC(C)C)NC(=O)[C@H](CC(C)C)NC(=O)[C@H](CCC(N)=O)NC(=O)[C@H](CCC(N)=O)NC(=O)[C@H](CC(C)C)NC(=O)[C@@H](NC(=O)[C@H](CCCNC(=N)N)NC(=O)[C@@H](NC(=O)[C@H](CC(C)C)NC(=O)[C@H](C)NC(=O)[C@H](CCC(=O)O)NC(=O)[C@@H](NC(=O)CNC(=O)[C@@H](NC(=O)[C@H](Cc1c[nH]c2ccccc12)NC(=O)[C@@H](NC(=O)[C@H](CC(=O)O)NC(=O)CCCC[C@@H]1SC[C@@H]2NC(=O)N[C@@H]21)[C@@H](C)O)[C@@H](C)O)C(C)C)[C@@H](C)CC)[C@@H](C)CC)[C@@H](C)CC)[C@@H](C)CC)[C@@H](C)CC)C(=O)N[C@H](C(=O)N[C@@H](CCC(N)=O)C(=O)N[C@@H](CCC(N)=O)C(=O)N[C@@H](CCCNC(=N)N)C(=O)N[C@@H](CCCNC(=N)N)C(=O)N[C@H](C(=O)N[C@@H](CCCNC(=N)N)C(=O)N[C@@H](CC(N)=O)C(=O)NCC(=O)N[C@@H](C)C(=O)N[C@@H](CO)C(=O)N[C@@H](CCCCN)C(=O)N[C@@H](CO)C(=O)O)[C@@H](C)O)[C@@H](C)CC [Tox0]
- Kd (Purified ANT): 0.15 nM

Molecule: Biot-GG-HFRIGCRHSRIG [Ctr3 Tox1]
- Induction of Mitochondrial swelling (sw) [1]: +

Molecule: C[C@H](NC(=O)[C@H](Cc1ccccc1)NC(=O)[C@H](Cc1ccc(O)cc1)NC(=O)[C@H](CCCNC(=N)N)NC(=O)[C@H](Cc1c[nH]c2ccccc12)NC(=O)[C@H](Cc1ccccc1)NC(=O)[C@H](CCC(N)=O)NC(=O)[C@@H](NC(=O)[C@H](CCCNC(=N)N)NC(=O)[C@H](CCCCN)NC(=O)[C@H](CC(=O)O)NC(=O)[C@H](CCCNC(=N)N)NC(=O)[C@H](CCCNC(=N)N)NC(=O)[C@H](CCCNC(=N)N)NC(=O)[C@H](CCC(N)=O)NC(=O)[C@H](CCCNC(=N)N)NC(=O)[C@H](CCCNC(=N)N)NC(=O)[C@H](CCCCN)NC(=O)[C@H](CCCCN)NC(=O)[C@H](CCCNC(=N)N)NC(=O)CCCC[C@@H]1SC[C@@H]2NC(=O)N[C@@H]21)[C@@H](C)O)C(=O)NCC(=O)N[C@@H](CC(N)=O)C(=O)O [Save1, Biot-RKKRRQRRR-DKRTQFWRYFAGN (hANT2)] (Biotin-RKKRRQRRRDKRTQFWRYFAGN-OH; C-terminus assumed)
- Mitrochondrial swelling (sw) % ([1]; 5 μM + Atr 600 μM): 5%
- Mitrochondrial swelling (sw) % ([1]; 5 μM alone): 2%
- Mitrochondrial swelling (sw) % ([1]; 20 μM + Atr 600 μM): 12%
- Mitrochondrial swelling (sw) % ([1]; 20 μM alone): 12%
- specific binding of VDAC (Purified VDAC): did not result in any specific binding
- Kd (Purified ANT): 0.01 nM

Molecule: Biot-RKKRRQRRR-LASGGAAGATSLCFVYPL (hANT[117-134]) [Save2]
- Mitrochondrial swelling (sw) % ([1]; 10 μM + Atr 600 μM): 16%
- Mitrochondrial swelling (sw) % ([1]; 10 μM alone): 2%
- Mitrochondrial swelling (sw) % ([1]; 20 μM + Atr 600 μM): 16%
- Mitrochondrial swelling (sw) % ([1]; 20 μM alone): 16%

Molecule: [Ca+2] [Ca 2 +, reference compound]
- Mitrochondrial swelling (sw) % ([1]; 100 μM alone): 100%

Molecule: C[C@H](NC(=O)CCCC[C@@H]1SC[C@@H]2NC(=O)N[C@@H]21)C(=O)N[C@@H](CS)C(=O)N[C@@H](CC(=O)O)C(=O)N[C@@H](CS)C(=O)N[C@@H](CCCNC(=N)N)C(=O)NCC(=O)N[C@@H](CC(=O)O)C(=O)N[C@@H](CS)C(=O)N[C@@H](Cc1ccccc1)C(=O)N[C@@H](CS)C(=O)NCC(=O)NCC(=O)N[C@@H](CC(=O)O)C(=O)N[C@@H](CCCCN)C(=O)N[C@@H](CCCNC(=N)N)C(=O)N[C@H](C(=O)N[C@@H](CCC(N)=O)C(=O)N[C@@H](Cc1ccccc1)C(=O)N[C@@H](Cc1c[nH]c2ccccc12)C(=O)N[C@@H](CCCNC(=N)N)C(=O)N[C@@H](Cc1ccc(O)cc1)C(=O)N[C@@H](Cc1ccccc1)C(=O)N1CCC[C@H]1C(=O)NCC(=O)N[C@@H](CC(N)=O)C(=O)O)[C@@H](C)O [Tox6, Biot-ACDCRGDCFC-GG-DKRTQFWRYFPGN (hANT2m)] (Biotin-ACDCRGDCFCGGDKRTQFWRYFPGN-OH; N-terminus and C-terminus assumed)
- Induction of Mitochondrial swelling (sw) [1]: ++
- specific binding of VDAC (Purified VDAC): did not result in any specific binding

Molecule: C[C@@H](O)[C@H](NC(=O)[C@H](CCCNC(=N)N)NC(=O)[C@H](CCCCN)NC(=O)[C@H](CC(=O)O)NC(=O)CNC(=O)CNC(=O)[C@H](CS)NC(=O)[C@H](CCCNC(=N)N)NC(=O)CNC(=O)[C@H](CC(N)=O)NC(=O)[C@H](CS)NC(=O)CCCC[C@@H]1SC[C@@H]2NC(=O)N[C@@H]21)C(=O)N[C@@H](CCC(N)=O)C(=O)N[C@@H](Cc1ccccc1)C(=O)N[C@@H](Cc1c[nH]c2ccccc12)C(=O)N[C@@H](CCCNC(=N)N)C(=O)N[C@@H](Cc1ccc(O)cc1)C(=O)N[C@@H](Cc1ccccc1)C(=O)N1CCC[C@H]1C(=O)NCC(=O)N[C@@H](CC(N)=O)C(=O)O [Tox5, Biot-CNGRC-GG-DKRTQFWRYFPGN (hANT2m)] (Biotin-CNGRCGGDKRTQFWRYFPGN-OH; N-terminus and C-terminus assumed)
- Induction of Mitochondrial swelling (sw) [1]: ++
- specific binding of VDAC (Purified VDAC): did not result in any specific binding

Molecule: C=C1[C@@H]2CC[C@H]3[C@]4(C)C[C@H](O[C@@H]5O[C@H](CO)[C@@H](OS(=O)(=O)O)[C@H](OS(=O)(=O)O)[C@H]5OC(=O)CC(C)C)C[C@@H](C(=O)O)[C@H]4CC[C@]3(C2)[C@H]1O [Atractyloside, atractyloside, reference compound]
- Mitrochondrial swelling (sw) % ([1]; 600 μM alone): 110%

Molecule: ACDCRGDCFCGGDKRTQFWRYFPGN (modifications not checked) [Tox6 (Biot-…-GG-… (hANT2m))]
- relative affinity [2]: 0.7 nM

Molecule: CNGRCGGDKRTQFWRYFPGN (modifications not checked) [Tox5 (Biot-CNGRC-GG-… (hANT2m))]
- relative affinity [2]: 0.1 nM

Molecule: DTWTGVEALIRILQQLLFIHFRIGCRHSRIGIIQQRRTRNGASKS (not fully specified (N-terminus)) [Tox0 (Biotin-Vpr52-96)]
- Kd [3]: 0.15 nM
